Experiments:
[1] = test system: Aspergillus niger 16404; test: High resolution minimum inhibitory concentration (HRMIC) test, A. niger; type: cell-based; conditions: for control of fungal organisms (A. niger): result in words; for MIC (ppm) A. niger: ppm active ingredient, M9GY medium, 30° C., 24 hours, average of multiple determinations
Description: (§1) Biological Activity: certain compounds of the present invention were tested for activity against three microorganisms, Escherichia coli 8739 (Gram-negative bacterium) and Staphylococcus aureus 6538 (Gram-positive bacterium) and Aspergillus niger 16404.
(§2) The lowest concentration of test compound required to inhibit Staphylococcus aureus 6538, Escherichia coli 8739 and Aspergillus niger 16404 was determined by a high resolution minimum inhibitory concentration (HRMIC) test. Varying amounts of the test compounds were added to minimal salts glucose medium (see T. Maniatis, E. F. Fritsch and J. Sambrook, Molecular Cloning, p 68 (1982)) supplemented with 0.1% yeast extract (M9GY) in a 96-well microtiter plate. […] serial dilutions were performed on a Biomek™ 2000 Workstation to obtain a range of closely spaced concentrations of test compound as shown in Table 1 (based on dilutions of a 10,000 ppm active ingredient stock solution of the test compound). The plates were inoculated with cell suspension of inoculum and adjusted to provide about 10^6 CFU (colony forming units)/ml in each well. The microtiter plates were incubated at 30° C. for 24 hours and then checked (optical density at 650 nm using a microplate reader) for the presence or absence of microbial growth in each well. […] Data reported (ppm active ingredient) are the average of multiple determinations (see Table 2).

[2] = test system: Staphylococcus aureus 6538; test: High resolution minimum inhibitory concentration (HRMIC) test, S. aureus; type: cell-based; conditions: for MIC (ppm) S. aur: ppm active ingredient, M9GY medium, 30° C., 24 hours, average of multiple determinations
Description: as §1, §2

[3] = test system: Escherichia coli 8739; test: High resolution minimum inhibitory concentration (HRMIC) test, E. coli; type: cell-based; conditions: ppm active ingredient; M9GY medium, 30° C., 24 hours; average of multiple determinations
Description: as §1, §2

Compound	melting point	control of fungal organisms (A. niger) [1]	MIC (ppm) S. aur [2]	better control versus Gram-positive (S. aur) bacteria than compound 6 ([2]; relative to compound 6, from Table 2 MIC)	MIC (ppm) E. coli [3]	MIC (ppm) A. niger [1]
Cn1sc(Sc2cccc[n+]2[O-])cc1=O [Compound 3, [2-methyl-3-isothiazolon-5-yl]-(1-oxypyridin-2-yl)sulfide]	141 to 143 °C	effective control				
CCCCCCCCn1sc(Sc2cccc[n+]2[O-])c(Cl)c1=O [Compound 5, [4-chloro-2-n-octyl-3-isothiazolon-5-yl]-(1-oxypyridin-2-yl)sulfide]		effective control	0.9 ppm	5 fold	30 ppm	10 ppm
Cn1sc(Sc2nc3ccccc3s2)cc1=O [Compound 6, [2-methyl-3-isothiazolon-5-yl]-(benzothiazol-2′-yl)sulfide, reference compound]			5 ppm		>1000 ppm	15 ppm

— patent publication US20030065192A1, “Antimicrobial compounds and methods of use” (priority 2001, published 2003)
